Here are results for 25 compounds from patent publication US10899754B2, “Modulators of indoleamine 2,3-dioxygenase” (GLAXOSMITHKLINE INTELLECTUAL PROPERTY DEVELOPMENT LIMITED, priority 2016, dated 2021).

Some results are limits rather than exact numbers.

Data set [1] deals with human peripheral blood mononuclear cells (PBMC). Kind of data set: PBMC cytotoxicity assay (CellTiter-Glo). Type of data set: cell-based. To be noted: 2 days, pCC50. Put shortly:
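% cytotoxicity was taken from CellTiter-Glo luminescence, using wells without cells and stimulated DMSO wells as references, and fitted by four-parameter curve to give XC50. Cells were human PBMC at 50,000 per well, activated with 100 ng/ml IFN-γ plus 50 ng/ml LPS. Incubation with 11-point, 3-fold dilution series ran for 2 days at 37 °C.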
On the technique in general: Cellular ATP, detected with luciferase, serves as a proxy for viable cell number.

Data set [2] addresses indoleamine 2, 3-dioxygenase (IDO1) (Homo sapiens, UniProt P14902). Kind of data set: IDO1 PBMC RapidFire MS assay (kynurenine detection by mass spectrometry). Type of data set: cell-based. Also on record: to induce the expression of indoleamine 2, 3-dioxygenase (IDO1); host or cells: human PBMC stimulated with IFN-gamma and LPS. To be noted: human PBMC stimulated with IFN-γ and LPS, 2 days, pIC50, read-out: PBMC PXC50 (converted). In a few lines:
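Kynurenine output, read by RapidFire mass spectrometry as ratio to an internal standard, was measured after 2-day compound exposure (11-point, 3-fold dilutions) of human PBMCs induced with 100 ng/ml IFN-γ and 50 ng/ml LPS. Cell viability tracked alongside via ATP luminescence; XC50 from curve fitting.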

indoleamine 2, 3-dioxygenase (IDO1), sequence (P14902 whole entry): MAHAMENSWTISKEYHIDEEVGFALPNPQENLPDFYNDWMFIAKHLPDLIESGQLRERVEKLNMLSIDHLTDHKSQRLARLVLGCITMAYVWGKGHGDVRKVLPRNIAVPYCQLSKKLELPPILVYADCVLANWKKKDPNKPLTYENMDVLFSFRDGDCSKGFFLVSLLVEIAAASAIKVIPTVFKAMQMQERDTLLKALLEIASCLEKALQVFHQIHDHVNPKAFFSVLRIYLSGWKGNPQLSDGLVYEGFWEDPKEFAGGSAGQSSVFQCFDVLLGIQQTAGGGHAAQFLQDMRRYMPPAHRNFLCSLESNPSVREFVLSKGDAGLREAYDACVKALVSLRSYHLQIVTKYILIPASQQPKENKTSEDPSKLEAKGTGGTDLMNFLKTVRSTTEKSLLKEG

Take `CC(C)CN(c1c(F)cc([C@H](C)CC(=O)O)cc1Nc1ccc(Cl)cn1)C1CCOCC1` [Example 35, (R)-3-(3-((5-chloropyridin-2-yl)amino)-5-fluoro-4-(isobutyl(tetrahydro-2H-pyran-4-yl)amino)phenyl)butanoic Acid]: in data set [1], the “PBMC TOX PXC50” value was under 5. Further, in data set [2], the IC50 is 0.501 nM.
With `CC(C)CN(c1ccc([C@H](C)CC(=O)O)cc1Nc1ccc(C#N)nn1)C1CCOCC1` [Example 24, (R)-3-(3-((6-cyanopyridazin-3-yl)amino)-4-(isobutyl(tetrahydro-2H-pyran-4-yl)amino)phenyl)butanoic Acid], in data set [1], the “PBMC TOX PXC50” value is reported as under 5. Also, in data set [2], the IC50 was 2.51 nM.
For `CC(C)CN(c1ccc([C@H](C)CC(=O)O)cc1Nc1ccc(C(F)(F)F)nn1)C1CCOCC1` [Example 18, (R)-3-(4-(isobutyl(tetrahydro-2H-pyran-4-yl)amino)-3-((6-(trifluoromethyl)pyridazin-3-yl)amino)phenyl)butanoic Acid], in data set [1], the “PBMC TOX PXC50” value is under 5. Besides, in data set [2], the IC50 is 2 nM.
For `CC(C)CN(c1ccc([C@H](C)CC(=O)O)cc1Nc1ncn[nH]1)C1CCOCC1` [example 242, (3R)-3-{4-[(2-methylpropyl)(oxan-4-yl)amino]-3-[(1H-1,2,4-triazol-5-yl)amino]phenyl}butanoic acid], in that order: under 5 and 398 nM.
On to `CC(C)CN(c1ccc([C@H](C)CC(=O)NS(=O)(=O)N(C)C)cc1Nc1nc(C(F)(F)F)ns1)C1CCOCC1` [Example 108, (R)—N—(N,N-Dimethylsulfamoyl)-3-(4-(isobutyl(tetrahydro-2H-pyran-4-yl)amino)-3-((3-(trifluoromethyl)-1,2,4-thiadiazol-5-yl)amino)phenyl)butanamide], for which the “PBMC TOX PXC50” value in data set [1] was under 5. Besides, the IC50 in data set [2] is 2.51 nM.
On to `Cc1nc(Nc2cc([C@H](C)CC(=O)O)ccc2N(CC(C)C)C2CCOCC2)ccc1Cl` [example 260, (3R)-3-{3-[(5-chloro-6-methylpyridin-2-yl)amino]-4-[(2-methylpropyl)(oxan-4-yl)amino]phenyl}butanoic acid], for which the “PBMC TOX PXC50” value in data set [1] is given as under 5. In data set [2], the IC50 is 39.8 nM.
Taken in the same sequence, the figures for `CC(C)CN(c1ccc([C@H](C)CC(=O)O)cc1N(c1cnc(C(=O)O)nc1)c1cnc(C(=O)O)nc1)C1CCOCC1` [example 265, 5-({5-[(2R)-1-carboxypropan-2-yl]-2-[(2-methylpropyl)(oxan-4-yl)amino]phenyl}(2-carboxypyrimidin-5-yl)amino)pyrimidine-2-carboxylic acid] were under 5 and over 10000 nM.
For `CC(C)CN(c1ccc(-c2ccccc2C(=O)O)cc1Nc1nc(C#N)ns1)C1CCCCC1` [Example 89, 3′-((3-cyano-1,2,4-thiadiazol-5-yl)amino)-4′-(cyclohexyl(isobutyl)amino)-[1,1′-biphenyl]-2-carboxylic Acid], the “PBMC TOX PXC50” value in data set [1] is given as under 5. Also, in data set [2], the IC50 is 3.98 nM.
Take `CC(C)CN(c1ccc([C@H](C)CC(=O)O)cc1Nc1n[nH]c(C(N)=O)n1)C1CCCCC1` [Example 84, (R)-3-(3-((5-carbamoyl-1H-1,2,4-triazol-3-yl)amino)-4-(cyclohexyl(isobutyl)amino)phenyl)butanoic Acid]: in data set [1], the “PBMC TOX PXC50” value is listed as under 5. In data set [2], the IC50 was 7.94 nM.
For `CC(C)CN(c1ccc([C@H](C)CC(=O)O)cc1Nc1ccc(Cl)c(F)n1)C1CCOCC1` [Example 14, (R)-3-(3-((5-chloro-6-fluoropyridin-2-yl)amino)-4-(isobutyl(tetrahydro-2H-pyran-4-yl)amino)phenyl)butanoic acid], the “PBMC TOX PXC50” value in data set [1] is recorded as under 5. In data set [2], the IC50 was 1.26 nM.
For `CC(C)CN(c1ccc([C@H](C)CC(=O)O)cc1Nc1nc(Cl)ns1)C1CC2(CCC2)C1` [Example 98, (R)-3-(3-((3-chloro-1,2,4-thiadiazol-5-yl)amino)-4-(isobutyl(spiro[3.3]heptan-2-yl)amino)phenyl)butanoic Acid], in that order: under 5 and 7.94 nM.
For `CONC(=O)C[C@@H](C)c1ccc(N(CC(C)C)C2CCOCC2)c(Nc2nc(C(F)(F)F)ns2)c1` [Example 106, (R)-3-(4-(Isobutyl(tetrahydro-2H-pyran-4-yl)amino)-3-((3-(trifluoromethyl)-1,2,4-thiadiazol-5-yl)amino)phenyl)-N-methoxybutanamide], in that order: under 5 and 6.31 nM.
`CC(C)CN(c1ccc(C(C)CC(=O)O)cc1Nc1nncs1)C1CCCCC1` (centres unmarked) [example 235, 3-{4-[cyclohexyl(2-methylpropyl)amino]-3-[(1,3,4-thiadiazol-2-yl)amino]phenyl}butanoic acid]: in data set [1], the “PBMC TOX PXC50” value is listed as under 5. Moreover, in data set [2], the IC50 is 20 nM.
In the case of `COC(=O)c1c[nH]c(Nc2cc([C@H](C)CC(=O)O)ccc2N(CC(C)C)[C@H]2CC[C@@H](OC)CC2)n1` [Example 46, (R)-3-(4-(isobutyl((1s,4s)-4-methoxycyclohexyl)amino)-3-((4-(methoxycarbonyl)-1H-imidazol-2-yl)amino)phenyl)butanoic Acid], the “PBMC TOX PXC50” value in data set [1] amounted to 5.2. Also, in data set [2], the IC50 was 1.58 nM.
With `COC(=O)N1CCC(N(CC(C)C)c2ccc([C@H](C)CC(=O)O)cc2Nc2nc(C(F)(F)F)ns2)CC1` [Example 66], the “PBMC TOX PXC50” value in data set [1] was found to be 5.2. Moreover, in data set [2], the IC50 was 1.58 nM.
On to `CC(C)CN(CCCCCNC(=O)c1ccc(C2(C(F)(F)F)N=N2)cc1)c1ccc([C@H](C)CC(=O)O)cc1Nc1nc(C(F)(F)F)ns1` [example 255, (3R)-3-{4-[(2-methylpropyl)[5-({4-[3-(trifluoromethyl)-3H-diazirin-3-yl]phenyl}formamido)pentyl]amino]-3-{[3-(trifluoromethyl)-1,2,4-thiadiazol-5-yl]amino}phenyl}butanoic acid], for which, in data set [1], the “PBMC TOX PXC50” value was under 4.3. Also, the IC50 in data set [2] was 20 nM.
On to `CC(C)CN(c1ccc([C@H](C)CC(=O)NO)cc1Nc1nc(C(F)(F)F)ns1)C1CCOCC1` [example 233, (3R)-N-hydroxy-3-{4-[(2-methylpropyl)(oxan-4-yl)amino]-3-{[3-(trifluoromethyl)-1,2,4-thiadiazol-5-yl]amino}phenyl}butanoic amide], for which the “PBMC TOX PXC50” value in data set [1] is recorded as under 5. Moreover, the IC50 in data set [2] was 20 nM.
As to `CC(C)CN(c1ccc(C(C)N)cc1Nc1nc(C(F)(F)F)ns1)C1CCOCC1` (centres unmarked) [example 234, 4-(1-aminoethyl)-N1-(2-methylpropyl)-N1-(oxan-4-yl)-N2-[3-(trifluoromethyl)-1,2,4-thiadiazol-5-yl]benzene-1,2-diamine], in data set [1], the “PBMC TOX PXC50” value is under 5. In data set [2], the IC50 is 501 nM.
`CC(C)CN(c1ccc([C@H](C)CC(=O)O)cc1Nc1nc(Cl)ns1)C1CCOCC1` [Example 25, (R)-3-(3-((3-chloro-1,2,4-thiadiazol-5-yl)amino)-4-(isobutyl(tetrahydro-2H-pyran-4-yl)amino)phenyl)butanoic Acid]: the “PBMC TOX PXC50” value in data set [1] was under 5. The IC50 in data set [2] is 3.16 nM.
Take `CC(C)CN(c1ccc([C@H](C)CC(=O)NS(C)(=O)=O)cc1Nc1nc(C(F)(F)F)ns1)C1CCOCC1` [Example 107, (R)-3-(4-(Isobutyl(tetrahydro-2H-pyran-4-yl)amino)-3-((3-(trifluoromethyl)-1,2,4-thiadiazol-5-yl)amino)phenyl)-N-(methylsulfonyl)butanamide]: the “PBMC TOX PXC50” value in data set [1] was found to be 5.3. For the same compound, the IC50 in data set [2] was 6.31 nM.
Taken in the same sequence, the figures for `CC(C)CN(c1ccc([C@H](C)CC(=O)O)cc1Nc1ccc(C#N)nc1)C1CCOCC1` [Example 13, (R)-3-(3-((6-cyanopyridin-3-yl)amino)-4-(isobutyl(tetrahydro-2H-pyran-4-yl)amino)phenyl)butanoic Acid] were under 5 and 1.26 nM.
For `CC(C)CN(CC(C)C)c1ccc(C(C)CC(=O)O)cc1Nc1nnnn1C` (centres unmarked) [example 252, 3-{4-[bis(2-methylpropyl)amino]-3-[(1-methyl-1H-1,2,3,4-tetrazol-5-yl)amino]phenyl}butanoic acid], in that order: under 5 and 3980 nM.
Turning to `CC(C)CN(c1ccc(-c2ccncc2C(=O)O)cc1Nc1nc(C(F)(F)F)ns1)C1CCOCC1` [example 267, 4-{4-[(2-methylpropyl)(oxan-4-yl)amino]-3-{[3-(trifluoromethyl)-1,2,4-thiadiazol-5-yl]amino}phenyl}pyridine-3-carboxylic acid], the “PBMC TOX PXC50” value in data set [1] was under 5. Moreover, the IC50 in data set [2] was 39.8 nM.
For `CC(=O)N1CCC(N(CC(C)C)c2ccc([C@H](C)CC(=O)O)cc2Nc2nc(C(F)(F)F)ns2)CC1` [Example 70, (R)-3-(4-((1-acetylpiperidin-4-yl) (isobutyl)amino)-3-((3-(trifluoromethyl)-1,2,4-thiadiazol-5-yl)amino)phenyl)butanoic Acid], in that order: under 5 and 3.16 nM.
Regarding `CC(C)CN(c1ccc([C@H](C)CC(=O)O)cc1Nc1nnc(C(N)=O)s1)C1CCOCC1` [example 261, (3R)-3-{3-[(5-carbamoyl-1,3,4-thiadiazol-2-yl)amino]-4-[(2-methylpropyl)(oxan-4-yl)amino]phenyl}butanoic acid], the “PBMC TOX PXC50” value in data set [1] is listed as under 5. Moreover, the IC50 in data set [2] is 31.6 nM.
